These compounds were tested on Wnt pathway (TCF-dependent transcription in HEK293 luciferase reporter cell line with ER-DSH construct) (assay: Cellular assay for Wnt pathway activity (luciferase reporter)). Settings: Homo sapiens; Wnt pathway inhibition, HEK293 luciferase reporter cells (ER-DSH, TCF promoter), 24 hours incubation, estrogen-induced.
Format: cell-based
Experimental: 1. Cellular Assay for Wnt Pathway Activity
Compounds were tested for their Wnt pathway inhibitory activities using a luciferase reporter cell based assay. A HEK293 luciferase reporter cell line was used which contained an Estrogen Receptor-Dishevelled (ER-DSH) construct and a T-Cell Factor (TCF) dependent gene promoter luciferase construct.
Compounds, in concentrations from 30 μM down to 1 nM, were incubated for 24 hours on the cells, which were induced for TCF-dependent transcription by the addition of estrogen (10). Luciferase activities were determined using the ONE GLO Luciferase Assay System (Promega) and the ENVISION microplate reader (Perkin Elmer). For analysis, the obtained data were normalized against the untreated vehicle control and fitted for determination of the IC50 values using the Assay Explorer software (Accelrys).
Work on CC(=O)N(C)CCN(C)c1cncc(Oc2ccc(F)cc2)n1 [Compound 4, N-(2-{[6-(4-Fluoro-phenoxy)-pyrazin-2-yl]-methyl-amino}-ethyl)-N-methyl-acetamide] yielded an IC50 of 200 to 1000 nM. Compound CC(=O)N(C)CCN(C)c1cncc(Oc2ccc(B(O)O)cc2)n1 [Compound 7, 4-(6-{[2-(Acetyl-methyl-amino)-ethyl]-methyl-amino}-pyrazin-2-yloxy)-boronic acid] has an IC50 of 200 to 1000 nM. CC(=O)N(C)CCN(C)c1cncc(Oc2ccc(-c3ccc(CO)nc3)cc2)n1 [Compound 8, N-[2-({6-[4-(6-Hydroxymethyl-pyridin-3-yl)-phenoxy]-pyrazin-2-yl}-methyl-amino)-ethyl]-N-methyl-acetamide] was tested, and the IC50 was under 200 nM. In the case of CC(=O)N(C)CCN(C)c1cncc(Oc2ccc(-c3cccc(N4CCN(C)CC4)n3)cc2)n1 [Compound 12], the IC50 is reported as under 200 nM. Work on CCN(CCSc1cncc(Oc2ccc(-c3ccc(C)cn3)cc2)n1)C(C)=O [Compound 17, N-Ethyl-N-(2-{6-[4-(5-methyl-pyridin-2-yl)-phenoxy]-pyrazin-2-ylsulfanyl}-ethyl)-acetamide] yielded an IC50 of under 200 nM. CC(=O)N(C)CCNc1cncc(Oc2ccc(-c3ccc(C)cn3)cc2)n1 [Compound 19, N-Methyl-N-(2-{6-[4-(5-methyl-pyridin-2-yl)-phenoxy]-pyrazin-2-ylamino}-ethyl)-acetamide] gave an IC50 of under 200 nM. O=C1CCCCN1CCCc1cncc(Oc2ccc(-c3ccc(N4CCOCC4)nc3)cc2)n1 [Compound 25, 1-(3-{6-[4-(6-Morpholin-4-yl-pyridin-3-yl)-phenoxy]-pyrazin-2-yl}-propyl)-piperidin-2-one] gave an IC50 of under 200 nM. Work on CNC(=O)CCN(C)c1cncc(Oc2ccc(F)cc2)n1 [Compound 29] yielded an IC50 of 200 to 1000 nM. For COc1ccc(Oc2cncc(N(C)CCN(C)C(C)=O)n2)cc1 [Compound 30, N-(2-{[6-(4-Methoxy-phenoxy)-pyrazin-2-yl]-methyl-amino}-ethyl)-N-methyl-acetamide], the IC50 was 200 to 1000 nM. Work on COc1ccc(Oc2cncc(N(C)CCN(C)C(=O)CC(C)(C)C)n2)cc1 [Compound 32, N-(2-{[6-(4-Methoxy-phenoxy)-pyrazin-2-yl]-methyl-amino}-ethyl)-3,3-N-trimethyl-butyramide] yielded an IC50 of 1000 to 10000 nM. COc1ccc(Oc2cncc(N(C)CCN(C)C(=O)Cc3cccs3)n2)cc1 [Compound 33, N-(2-{[6-(4-Methoxy-phenoxy)-pyrazin-2-yl]-methyl-amino}-ethyl)-N-methyl-2-thiophen-2-yl-acetamide] gave an IC50 of 1000 to 10000 nM. Compound CCC(=O)N(C)CCN(C)c1cncc(Oc2ccc(F)cc2)n1 [Compound 34, N-(2-{[6-(4-Fluoro-phenoxy)pyrazin-2-yl]-methyl-amino}-ethyl)-N-methyl-propionamide] has an IC50 of 1000 to 10000 nM. With CCC(=O)N(C)CCN(C)c1cncc(Oc2ccc(OC)cc2)n1 [Compound 35, N-(2-{[6-(4-Methoxy-phenoxy)-pyrazin-2-yl]-methyl-amino}-ethyl)-N-methyl-propionamide] the IC50 was 1000 to 10000 nM. For CC(=O)N(C)CCN(C)c1cncc(Oc2ccc(Cl)cc2)n1 [Compound 36, N-(2-{[6-(4-Chloro-phenoxy)-pyrazin-2-yl]-methyl-amino}-ethyl)-N-methyl-acetamide], the IC50 was 200 to 1000 nM. Compound CC(=O)N(C)CCN(C)c1cncc(Oc2ccc(Br)cc2)n1 [Compound 37, N-(2-{[6-(4-Bromo-phenoxy)-pyrazin-2-yl]-methyl-amino}-ethyl)-N-methyl-acetamide] has an IC50 of under 200 nM. Work on COc1ccc(Oc2cncc(NCC3CCCN(C(C)=O)C3)n2)cc1 (centres unmarked) [Compound 38, 1-(3-{[6-(4-Methoxy-phenoxy)-pyrazin-2-ylamino]-methyl}-piperidin-1-yl)-ethanone] yielded an IC50 of 1000 to 10000 nM. In the case of CC(=O)N1CCCC(CNc2cncc(Oc3ccc(F)cc3)n2)C1 (centres unmarked) [Compound 39, 1-(3-{[6-(4-Fluoro-phenoxy)-pyrazin-2-ylamino]-methyl}-piperidin-1-yl)-ethanone], the IC50 is reported as 1000 to 10000 nM. Compound COc1ccc(Oc2cncc(N3CCCC(CNC(=O)OC(C)(C)C)C3)n2)cc1 (centres unmarked) [Compound 40, {1-[6-(4-Methoxy-phenoxy)-pyrazin-2-yl]-piperidin-3-ylmethyl}-carbamic acid tert-butyl ester] has an IC50 of 1000 to 10000 nM. COc1cccc(Oc2cncc(N(C)CCN(C)C(C)=O)n2)c1 [Compound 41, N-(2-{[6-(3-Methoxy-phenoxy)-pyrazin-2-yl]-methyl-amino}-ethyl)-N-methyl-acetamide] showed an IC50 of 1000 to 10000 nM. Compound CC(=O)N(C)CCN(C)c1cncc(OC2CCCC2)n1 [Compound 43, N-{2-[(6-Cyclo-pentyloxy-pyrazin-2-yl)-methyl-amino]-ethyl}-N-methyl-acetamide] has an IC50 of 1000 to 10000 nM. Work on CC(=O)N(C)CCN(C)c1cncc(Oc2cccc(C)c2)n1 [Compound 44, N-Methyl-N-{2-[methyl-(6-m-tolyloxy-pyrazin-2-yl)-amino]-ethyl}-acetamide] yielded an IC50 of 1000 to 10000 nM. For CCOC(=O)c1cccc(Oc2cncc(N(C)CCN(C)C(C)=O)n2)c1 [Compound 45, 3-(6-{[2-(Acetyl-methyl-amino)-ethyl]-methyl-amino}-pyrazin-2-yloxy)-benzoic acid ethyl ester], the IC50 was 1000 to 10000 nM. In the case of CNCCN(C)c1cncc(OC2CCCCC2)n1 [Compound 46, N-(6-Cyclo-hexyloxy-pyrazin-2-yl)-N,N′-dimethyl-ethane-1,2-diamine], the IC50 is reported as 200 to 1000 nM. With CC(=O)N(C)CCN(C)c1cncc(Oc2ccc3ncccc3c2)n1 [Compound 47, N-Methyl-N-(2-{methyl-[6-(quinolin-6-yloxy)-pyrazin-2-yl]-amino}-ethyl)-acetamide] the IC50 was 1000 to 10000 nM. Work on CC(=O)N(C)CCN(C)c1cncc(OC2CCCCC2)n1 [Compound 48, N-{2-[(6-Cyclo-hexyloxy-pyrazin-2-yl)-methyl-amino]-ethyl}-N-methyl-acetamide] yielded an IC50 of 1000 to 10000 nM. COc1ccc(Oc2cncc(N3CCCC(CNC(C)=O)C3)n2)cc1 (centres unmarked) [Compound 49, N-{1-[6-(4-Methoxy-phenoxy)-pyrazin-2-yl]-piperidin-3-ylmethyl}-acetamide] showed an IC50 of 1000 to 10000 nM. Compound CSc1cccc(Oc2cncc(N(C)CCN(C)C(C)=O)n2)c1 [Compound 50, N-Methyl-N-(2-{methyl-[6-(3-methyl-sulfanyl-phenoxy)-pyrazin-2-yl]-amino}-ethyl)-acetamide] has an IC50 of 200 to 1000 nM. With CC(=O)N(C)CCN(C)c1cncc(Oc2ccccc2F)n1 [Compound 51, N-(2-{[6-(2-Fluoro-phenoxy)-pyrazin-2-yl]-methyl-amino}-ethyl)-N-methyl-acetamide] the IC50 was 200 to 1000 nM. In the case of CC(=O)N(C)CCN(C)c1cncc(Oc2ccc(C)cc2)n1 [Compound 52, N-Methyl-N-{2-[methyl-(6-p-tolyloxy-pyrazin-2-yl)-amino]-ethyl}-acetamide], the IC50 is reported as under 200 nM. In the case of COc1ccc(Oc2cncc(N(C)CCN(C)C(=O)Cc3sccc3Cl)n2)cc1 [Compound 53, 2-(3-Chloro-thiophen-2-yl)-N-(2-{[6-(4-methoxy-phenoxy)-pyrazin-2-yl]-methyl-amino}-ethyl)-N-methyl-acetamide], the IC50 is reported as 1000 to 10000 nM. With COc1ccc(Oc2cncc(N(C)CCNC(=O)OC(C)(C)C)n2)cc1 [Compound 54, (2-{[6-(4-Methoxy-phenoxy)-pyrazin-2-yl]-methyl-amino}-ethyl)-carbamic acid tert-butyl ester] the IC50 was 1000 to 10000 nM. Compound CC(=O)N(C)CCN(C)c1cncc(Oc2ccc3cccnc3c2)n1 [Compound 55, N-Methyl-N-(2-{methyl-[6-(quinolin-7-yloxy)-pyrazin-2-yl]-amino}-ethyl)-acetamide] has an IC50 of 1000 to 10000 nM. Compound CC(=O)N(C)CCN(C)c1cncc(Oc2ccc(O)cc2)n1 [Compound 56, N-(2-{[6-(4-Hydroxy-phenoxy)-pyrazin-2-yl]-methyl-amino}-ethyl)-N-methyl-acetamide] has an IC50 of 200 to 1000 nM. For COc1ccc(Oc2cncc(NCC3CCCN3C(C)=O)n2)cc1 (centres unmarked) [Compound 57, 1-(2-{[6-(4-Methoxy-phenoxy)-pyrazin-2-ylamino]-methyl}-pyrrolidin-1-yl)-ethanone], the IC50 was 1000 to 10000 nM. In the case of CC(=O)NCCN(C)c1cncc(Oc2ccc(F)cc2)n1 [Compound 58, N-(2-{[6-(4-Fluoro-phenoxy)-pyrazin-2-yl]-methyl-amino}-ethyl)-acetamide], the IC50 is reported as 1000 to 10000 nM. Work on COc1ccc(Oc2cncc(N(C)CCNC(C)=O)n2)cc1 [Compound 59, N-(2-{[6-(4-Methoxy-phenoxy)-pyrazin-2-yl]-methyl-amino}-ethyl)-acetamide] yielded an IC50 of 200 to 1000 nM. COc1ccc(Oc2cncc(N(C)CCN(C)S(=O)(=O)c3ccc(F)cc3F)n2)cc1 [Compound 60, 2,4-Difluoro-N-(2-{[6-(4-methoxy-phenoxy)-pyrazin-2-yl]-methyl-amino}-ethyl)-N-methyl-benzene-sulfonamide] gave an IC50 of 1000 to 10000 nM. Compound COc1ccc(Oc2cncc(N(C)CCN(C)S(=O)(=O)c3cc(F)ccc3F)n2)cc1 [Compound 61, 2,5-Difluoro-N-(2-{[6-(4-methoxy-phenoxy)-pyrazin-2-yl]-methyl-amino}-ethyl)-N-methyl-benzene-sulfonamide] has an IC50 of 1000 to 10000 nM. CC(=O)N1CCCC1CNc1cncc(Oc2ccc(F)cc2)n1 (centres unmarked) [Compound 62, 1-(2-{[6-(4-Fluoro-phenoxy)-pyrazin-2-ylamino]-methyl}-pyrrolidin-1-yl)-ethanone] gave an IC50 of 1000 to 10000 nM. COc1ccc(Oc2cncc(N(C)CCN(C)C(=O)Cc3ccc(F)cc3)n2)cc1 [Compound 63, 2-(4-Fluoro-phenyl)-N-(2-{[6-(4-methoxy-phenoxy)-pyrazin-2-yl]-methyl-amino}-ethyl)-N-methyl-acetamide] gave an IC50 of 1000 to 10000 nM. Compound COc1ccc(Oc2cncc(N(C)CCN(C)C(=O)CCC(C)C)n2)cc1 [Compound 64, 4-Methyl-pentanoic acid (2-{[6-(4-methoxy-phenoxy)-pyrazin-2-yl]-methyl-amino}-ethyl)-methyl-amide] has an IC50 of 1000 to 10000 nM.

Reference: patent publication US9493444B2 (Merck Patent GmbH, priority 2012, dated 2016)
